Measured values as given in patent US11839210B1, “Plant growth promoter with strigolactones regulation activities” (King Abdullah University of Science and Technology, priority 2017, dated 2023).

Tests used:
D10 = test: qRT-PCR of D10 gene expression in rice roots after zaxinone treatment; assay type: in vivo, rice (Oryza sativa Nipponbare); settings: −Pi, 6 h
Protocol: (§1) For the analysis of SL transcript levels in the zas mutant, one week-old seedlings were grown hydroponically in half-strength modified Hoagland nutrient solution with K2HPO4·2H2O (+Pi) and without K2HPO4·2H2O (−Pi) for 7 days. Seedlings were further treated with zaxinone for 6 h and tissues were collected.
(§2) Total RNA was extracted from the roots and shoots using a Qiagen Plant RNeasy Kit according to the manufacturer's instruction. cDNA was synthesized from 1 μg of total RNA using iScript cDNA Synthesis Kit (BIO-RAD Laboratories, Inc, 2000 Alfred Nobel Drive, Hercules, CA, Cat. No #170-8890) according to instructions in the user manual. For mycorrhizal samples, single-strand cDNA was synthesized from 1 μg of total RNA using Super-Script II (Invitrogen) according to instructions in the user manual. Primers used for real-time quantitative RT-PCR (qRT-PCR) analysis are listed below in Table 3. qRT-PCR was performed using SYBR Green Master Mix (Applied Biosystems; www.lifetechnologies.com) in a StepOnePlus (Life Technologies, Carlsbad, CA, USA). For mycorrhizal samples, qRT-PCR was performed using a Rotor-Gene Q 5plex HRM Platform (Qiagen). The 2-ΔCt method was used to calculate the relative gene expression levels and rice Ubiquitin (OsUBQ or OsRubQ1) gene was used as the internal control to normalize target gene expression.
(§3) 14-day-old rice seedlings were transferred to new hydroponic pots containing fresh media with or without chemicals for 6 hours. SL biosynthetic (D27, D10, D17 and MAX1-Os900) gene expression were determined under −Pi conditions (phosphate deficient) with zaxinone (2.5 and 5 μM) treatment of both Nipponbare wild-type (WT) rice roots and zas mutant rice roots. The expression levels (1301) were detected by quantitative RT-PCR. Ubiquitin was used as a reference gene. Mock treatment (control) treatment consisted of 0.1% acetone. Bars (1302) show comparisons between the treatments and represent mean±SD (n=3). Decrease in SLs levels in the plants treated with zaxinone ranged from approximately 40% to 70%.

MAX1-Os900 = test: qRT-PCR of MAX1-Os900 gene expression in rice roots after zaxinone treatment; assay type: in vivo, rice (Oryza sativa Nipponbare); settings: −Pi, 6 h
Protocol: as §1, §2, §3

[1] = system: wild-type and zas mutant rice seedlings; test: Rescue of zas mutant root phenotype, hydroponically grown rice seedlings; assay type: in vivo, Oryza sativa Nipponbare; settings: hydroponic, 2.5 μM zaxinone
Protocol: For rescue of zas mutant phenotype with zaxinone, one week-old seedlings were grown hydroponically in Hoagland nutrient solution containing K2HPO4·2H2O (+Pi) for 3 weeks with 2.5 μM zaxinone treatment or Mock treatment (0.1% acetone). The solution was changed every other day, adding the chemical at each renewal. Plants grown without zaxinone served as the controls and phenotypic data were recorded.
Phenotypic characteristics of hydroponically grown Nipponbare wild-type and zas mutant rice plants were examined to determine the effect of zaxinone treatment on plant growth. Data are means±SD [(FIG. 16A), n=12; (FIG. 16B), n=6; (FIG. 16C), n=4; (FIG. 16D), n=8; Con=Control, Zax=Zaxinone]. Different letters denote significant difference following a One-way ANOVA test (P<0.05).

Zaxinone Synthase (ZAS) = test: qRT-PCR of ZAS transcript levels in rice after zaxinone or GR24; assay type: in vivo, rice (Nipponbare); settings: phosphate starvation, 5 μM, 6 h
Protocol: as §2
FIGS. 14A-14C show transcript levels of Zaxinone Synthase (ZAS) in wild type roots and shoots. In FIG. 14A, the relative expression levels of ZAS under normal (+Pi) and phosphate-starved (−Pi) conditions in Nipponbare wild-type (WT) roots and shoots is seen. The expression levels in the WT root were normalized to 1. In FIG. 14B, the relative expression levels of ZAS under −Pi conditions with 5 μM of Zaxinone and GR24 treatment in WT rice root and shoot is seen. Three weeks-old seedlings were transferred to new hydroponic pots containing fresh media with or without chemicals for 6 h. The expression levels in the WT-mock were normalized to 1 and the expression levels were detected by qRT-PCR. Ubiquitin was used as a reference gene. Bars represent mean±SD (n=3). Mock treatment (0.1% acetone). Different letters above each bar denote significant difference following a One-way ANOVA test (P<0.05).

[2] = WT rice roots, 2.5 μM zaxinone, WT mock approx. 1.0
[3] = WT rice roots, 5.0 μM zaxinone, WT mock approx. 1.0
[4] = zas mutant rice roots, 2.5 μM zaxinone
[5] = zas mutant rice roots, 5.0 μM zaxinone

CC(=O)/C=C/C=C(C)/C=C/C1=C(C)C[C@@H](O)CC1(C)C [zaxinone, 3-OH-β-apo-13-carotenone]
decrease of D10 relative expression vs mock (D10; WT rice roots, 2.5 μM zaxinone): approximately 75%
D10 relative expression (D10; [2]): approximately 0.25
decrease of D10 relative expression vs mock (D10; WT rice roots, 5.0 μM zaxinone): ~70%
D10 relative expression (D10; [3]): approximately 0.3
decrease of D10 relative expression vs mock (D10; [4]): approximately 60%
D10 relative expression (D10; zas mutant rice roots, 2.5 μM zaxinone, zas mock approx. 2.5): approximately 1.0
decrease of D10 relative expression vs mock (D10; [5]): ~68%
D10 relative expression (D10; zas mutant rice roots, 5.0 μM zaxinone, zas mock approx. 2.5): approximately 0.8
decrease of MAX1-Os900 relative expression vs mock (MAX1-Os900; WT rice roots, 2.5 μM zaxinone): approximately 75%
MAX1-Os900 relative expression (MAX1-Os900; [2]): approximately 0.25
decrease of MAX1-Os900 relative expression vs mock (MAX1-Os900; WT rice roots, 5.0 μM zaxinone): ~60%
MAX1-Os900 relative expression (MAX1-Os900; [3]): approximately 0.4
decrease of MAX1-Os900 relative expression vs mock (MAX1-Os900; [4]): approximately 43%
MAX1-Os900 relative expression (MAX1-Os900; zas mutant rice roots, 2.5 μM zaxinone, zas mock approx. 2.1): approximately 1.2
decrease of MAX1-Os900 relative expression vs mock (MAX1-Os900; [5]): ~57%
MAX1-Os900 relative expression (MAX1-Os900; zas mutant rice roots, 5.0 μM zaxinone, zas mock approx. 2.1): approximately 0.9
root growth ([1]; wild type plants): increase in root growth
crown root length ([1]; zas mutant, three weeks, untreated 7-9 cm): 10-11 cm
root biomass ([1]; zas mutant, three weeks, untreated 12-22 mg DW): 28-35 mg DW
crown root number ([1]; zas mutant, three weeks, untreated 20-23): 27-32
effect on ZAS transcript levels compared between zaxinone and GR24 (Zaxinone Synthase (ZAS); WT rice root tissues): more pronounced effect
ZAS transcript levels in root tissues (Zaxinone Synthase (ZAS); WT rice): negatively impacted
